Experimental data published in PubChem BioAssay (NCI).
Values joined by “and” are separate entries in the source; they are usually repeats but may differ in a detail not shown here. Identical values can stand only once.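 Tested at 5 concentrations; 48 h exposure; 96-well plates; endpoints linearly interpolated, else capped at highest concentration. GI50 marks 50% less growth. Definition used: TGI = concentration required for complete inhibition of growth.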

Columns and labels:
Assay in all cases: DTP human tumour cell line panel, 48 h
HCT-15 colon = system: HCT-15 colon
SF-539 CNS = system: SF-539 CNS
OVCAR-4 ovarian = system: OVCAR-4 ovarian
SK-OV-3 ovarian = system: SK-OV-3 ovarian
MALME-3M melanoma = system: MALME-3M melanoma
HCC-2998 colon = system: HCC-2998 colon
786-0 renal = system: 786-0 renal
HT29 colon = system: HT29 colon
NCI-H226 lung = system: NCI-H226 lung
SNB-75 CNS = system: SNB-75 CNS

In the case of `COc1cc(C)ccc1C(=O)c1ccc(C)cc1OC`, the GI50 (HCT-15 colon) is reported as 1.1 µM, the TGI (HCT-15 colon) is reported as > 100 µM and the GI50 (SF-539 CNS) is reported as 2.66 µM. The TGI (SF-539 CNS) was 20.6 µM, the GI50 (OVCAR-4 ovarian) was 45.1 µM and the TGI (OVCAR-4 ovarian) was > 100 µM. It also gave a GI50 (SK-OV-3 ovarian) of 2.66 µM, a TGI (SK-OV-3 ovarian) of 14.1 µM and a GI50 (MALME-3M melanoma) of 4.67 µM. The TGI (MALME-3M melanoma) was > 100 µM, the GI50 (HCC-2998 colon) was 2.87 µM and the TGI (HCC-2998 colon) was 35.9 µM. For the same compound, the GI50 (786-0 renal) was 6.29 µM, the TGI (786-0 renal) was > 100 µM and the GI50 (HT29 colon) was 1.85 µM. For the same compound, the TGI (HT29 colon) was 7.99 µM, the GI50 (NCI-H226 lung) was 4.45 µM and the TGI (NCI-H226 lung) was 72.7 µM. The GI50 (SNB-75 CNS) was 3.25 µM and the TGI (SNB-75 CNS) was > 100 µM.
Work on `C=C1CCC2C3(C)COC(C)(C)OC3CCC2(C)C1C/C=C1/C(=O)OCC1OC(C)=O` (stereo not drawn) yielded a GI50 (HCT-15 colon) of 1.61 µM, a TGI (HCT-15 colon) of 4.19 µM and a GI50 (SF-539 CNS) of 1.72 µM. The TGI (SF-539 CNS) was 3.3 µM, the GI50 (OVCAR-4 ovarian) was 2.6 µM and the TGI (OVCAR-4 ovarian) was 10.1 µM. The GI50 (SK-OV-3 ovarian) was 12.5 µM, the TGI (SK-OV-3 ovarian) was 25.7 µM and the GI50 (MALME-3M melanoma) was 3.11 µM. The TGI (MALME-3M melanoma) was 10.1 µM, the GI50 (HCC-2998 colon) was 15.2 µM and the TGI (HCC-2998 colon) was 28.8 µM. The GI50 (786-0 renal) was 2.89 µM, the TGI (786-0 renal) was 8.05 µM and the GI50 (HT29 colon) was 1.89 µM. It also gave a TGI (HT29 colon) of 4.85 µM, a GI50 (NCI-H226 lung) of 12.8 µM and a TGI (NCI-H226 lung) of 33.7 µM. It also gave a GI50 (SNB-75 CNS) of 5.23 µM and a TGI (SNB-75 CNS) of 16.5 µM.
`COc1ccc2c(c1)C(=O)/C(=C/c1cccc(OCC(=O)c3ccccc3)c1)CC2` was tested, and the GI50 (HCT-15 colon) was 7.11 µM, the TGI (HCT-15 colon) was > 100 µM and the GI50 (SF-539 CNS) was 64.7 µM. The TGI (SF-539 CNS) was > 100 µM, the GI50 (OVCAR-4 ovarian) was 12.5 µM and the TGI (OVCAR-4 ovarian) was > 100 µM. For the same compound, the GI50 (SK-OV-3 ovarian) was 62.9 µM, the TGI (SK-OV-3 ovarian) was > 100 µM and the GI50 (MALME-3M melanoma) was 28.5 µM. For the same compound, the TGI (MALME-3M melanoma) was > 100 µM, the GI50 (HCC-2998 colon) was 25.8 µM and the TGI (HCC-2998 colon) was > 100 µM. The GI50 (786-0 renal) was 54.4 µM, the TGI (786-0 renal) was > 100 µM and the GI50 (HT29 colon) was 9.9 µM. The TGI (HT29 colon) was > 100 µM, the GI50 (NCI-H226 lung) was 28.6 µM and the TGI (NCI-H226 lung) was > 100 µM. The GI50 (SNB-75 CNS) was 42.4 µM and the TGI (SNB-75 CNS) was > 100 µM.
`IC[P+]1(c2ccccc2)CCCC1` was tested, and the TGI (HCT-15 colon) was > 100 µM, the TGI (SF-539 CNS) was > 100 µM and the TGI (SK-OV-3 ovarian) was > 100 µM. For the same compound, the TGI (MALME-3M melanoma) was > 100 µM, the TGI (HCC-2998 colon) was > 100 µM and the TGI (786-0 renal) was > 100 µM. The TGI (HT29 colon) was > 100 µM, the TGI (NCI-H226 lung) was 89 µM and the TGI (SNB-75 CNS) was 62.7 µM.
In the case of `Cc1ccc(S(=O)(=O)SC/C=C\CSS(=O)(=O)c2ccc(C)cc2)cc1`, the GI50 (HCT-15 colon) is reported as 6.16 µM and 43.4 µM, the TGI (HCT-15 colon) is reported as > 100 µM and the GI50 (SF-539 CNS) is reported as 7 µM and 17.2 µM. The TGI (SF-539 CNS) was 43.6 µM and 33.3 µM, the GI50 (OVCAR-4 ovarian) was 53.1 µM and 20.1 µM and the TGI (OVCAR-4 ovarian) was > 100 µM and 41.2 µM. The TGI (SK-OV-3 ovarian) was 98.9 µM and 83.2 µM, the TGI (MALME-3M melanoma) was > 94.9 µM and 43.8 µM and the TGI (HCC-2998 colon) was > 100 µM. For the same compound, the TGI (786-0 renal) was > 66.2 µM and 32.3 µM, the GI50 (HT29 colon) was 6.14 µM and 20.3 µM and the TGI (HT29 colon) was > 62.8 µM and 39.7 µM. The TGI (NCI-H226 lung) was 71.5 µM and 55.2 µM and the TGI (SNB-75 CNS) was > 100 µM.
